The experiment relates to β-amyloid peptide (Aβ) synthesized by β APP-CHO cells. The experiment can be described thus: Aβ production in βAPP-CHO cells, sandwich ELISA. It counts as cell-based, Chinese hamster. Particulars: CHO cells overexpressing human βAPP, test compounds added at various dose concentrations to the medium, FIG. 5 and FIG. 6. The source says:
This experiment was designed to determine the ability of lipid regulating agents to alter the production of β-amyloid peptide (Aβ) in cultured cells, and their consequent activity in preventing and treating Alzheimer's Disease.
Chinese hamster ovary (CHO) cells were stably transfected with a construct to enable the overexpression of the human β-amyloid precursor protein (βAPP) gene to cause increased production of Aβ. The measurement of Aβ synthesized by these β APP-CHO cells was done using a standard sandwich ELISA assay, employing well-characterized antibodies to the N-terminus (6E10) and middle (4G8) of Aβ. This assay is routinely used to measure Aβ in tissues, body fluids, and cell culture media. Cultures of β APP-CHO cells were grown to near confluency, and then the test compounds were added at various dose concentrations to the cell medium.
A general note: ELISA stands for enzyme-linked immunosorbent assay.

“Also recorded” adds a separate entry of the source.

As for `CC(C)(CCCCOCCCCC(C)(C)C(=O)O)C(=O)O` [CI-1027], the “reduction in Aβ” value is recorded as “only moderate changes”.

With `Cc1ccc(C)c(OCCCC(C)(C)C(=O)O)c1` [CI-719, gemfibrozil], the “reduction in Aβ” value is reported as “only moderate changes”.

On to `CC[C@H](C)C(=O)O[C@H]1CCC=C2C=C[C@H](C)[C@H](CC[C@@H]3C[C@@H](O)CC(=O)O3)[C@H]21` [mevastatin], for which the “reduction in Aβ” value is on record as “dose-dependent inhibition”. Also, for the setting “listed as Mevastatin”, the “reduction in Aβ” value was “dramatic dose-dependent reduction”.

Turning to `CC(C)c1cc(C(C)C)c(CC(=O)NS(=O)(=O)Oc2c(C(C)C)cccc2C(C)C)c(C(C)C)c1` [Avasimibe], the “reduction in Aβ” value is “substantial dose-dependent reduction”.

With `c1coc(CSC2=NCCS2)c1` [PD 69405], the “reduction in Aβ” value is listed as “only moderate changes”.

In the case of `CC[C@H](C)C(=O)O[C@H]1C[C@@H](C)C=C2C=C[C@H](C)[C@H](CC[C@@H]3C[C@@H](O)CC(=O)O3)[C@H]21` [lovastatin], the “reduction in Aβ” value is reported as “dose-dependent inhibition; also recorded: dramatic dose-dependent reduction”.

(Values after patent US20060069163A1, “Method for treating Alzheimer's disease” (Pfizer Inc, priority 2000, published 2006).)
